Experimental data reported in paper PMC11633381 (mBio, 2024).

Tests used:
[1] = biological target: T1, BoSusA (BoGH13BSus) (Bacteroides ovatus, UniProt A0ABU3INP3); assay: inhibition kinetics with pNP-G6 (αKi); also ITC binding to free enzyme; type: biochemical; conditions: read-out: Inhibition constant
T1 construct: gene RO706_06385; cloned starting with A90 (A23 in SusA numbering)

[2] = biological target: T2, BoSusA (BoGH13BSus) (Bacteroides ovatus, UniProt A0ABU3INP3, D331N); assay: isothermal titration calorimetry; type: binding
T2 construct: gene RO706_06385; cloned starting with A90 (A23 in SusA numbering)

[3] = biological target: T3, SusA (Bacteroides thetaiotaomicron, UniProt Q8A1G0); assay: inhibition kinetics with pNP-G6 (αKi); also ITC binding to free enzyme; type: biochemical
T3 construct: cloned starting with T23

[4] = biological target: T4, SusA (Bacteroides thetaiotaomicron, UniProt Q8A1G0, D331N); assay: isothermal titration calorimetry; type: binding
T4 construct: cloned starting with T23

[5] = biological target: T5, BoGH97D (Bacteroides ovatus, UniProt A0ABU3IP51); assay: competitive inhibition kinetics with pNP-Glc; type: biochemical
T5 construct: gene RO706_07160; N-terminal 6x His tag, recombinant

[6] = biological target: T6, BoSusB (BoGH97CSus) (Bacteroides ovatus, UniProt A0AAN3A6N4); assay: co-crystal structure; competitive inhibition kinetics with pNP-Glc; type: biochemical
T6 construct: gene BACOVA_03519; N-terminal 6x His tag, recombinant

[7] = biological target: T7, BtGH97H (Bacteroides thetaiotaomicron, UniProt Q89YZ9); assay: competitive inhibition kinetics with pNP-Glc; type: biochemical
T7 construct: gene BT_4581; N-terminal 6x His tag, recombinant

[8] = biological target: T8, BoSusG (BoGH13ASus) (Bacteroides ovatus, UniProt A0ABU3ISA0); assay: EnzChek fluorescent starch amylase assay; type: biochemical
T8 construct: gene RO706_06355

C[C@H]1O[C@H](O[C@H]2[C@H](O)[C@@H](O)[C@@H](O[C@H]3[C@H](O)[C@@H](O)C(O)O[C@@H]3CO)O[C@@H]2CO)[C@H](O)[C@@H](O)[C@@H]1N[C@H]1C=C(CO)[C@@H](O)[C@H](O)[C@H]1O (some centres unmarked) [acarbose] was tested, and the Ki [1] was 123 ± 9.2 nM, the isothermal titration calorimetry [2] was “Wild-type enzyme has two acarbose-binding sites, whereas a catalytically inert variant of each enzyme (D331N) has one” and the Ki [3] was 94.7 ± 6.9 nM. The isothermal titration calorimetry [4] was “Wild-type enzyme has two acarbose-binding sites, whereas a catalytically inert variant of each enzyme (D331N) has one”, the Ki [5] was 134 ± 22.4 nM and the Ki [6] was 69.3 ± 8.9 nM. The Ki [7] was 162 ± 24.3 nM and the IC50 [8] was 2200 ± 350 nM.
